Results on 2 compounds are retold here after PMC5487681, “Identification of Antifungal H^+-ATPase Inhibitors with Effect on Plasma Membrane Potential” (Antimicrobial Agents and Chemotherapy, 2017).

Data set [1] is described as follows: Compound precipitation in the fungal growth medium. In kind it is physicochemical. Particulars: fungal growth medium (RPMI), footnotes of Table 1. How it is done:
(§1) The following fungal isolates were used: Saccharomyces cerevisiae ATCC 9763, Candida albicans SC5314, Candida parapsilosis ATCC 22019, Candida tropicalis Ct016, Candida glabrata ATCC 90030, Aspergillus fumigatus ATCC 13073, and Aspergillus flavus ATCC MYA-1005. Frozen stocks of yeast isolates in glycerol (final concentration, 20%) were prepared by growing the cells to log phase in YPD medium at 30°C and 150 rpm. Frozen stocks of mold spores were prepared by harvesting spores from 7-day-old potato glucose agar plates in phosphate-buffered saline, 0.1% Tween 80 and aliquoting these spores in the presence of glycerol (final concentration, 20%). The cells were stored at −80°C. The cells or spores were thawed and diluted to a final concentration of 0.5 × 10^5 to 2.5 × 10^5 CFU/ml in sterile Milli-Q H2O. […] The plate was incubated for 20 to 24 h at 34°C (72 h for molds), and the OD490 was measured on a Victor X5 (PerkinElmer) plate reader. Mold growth assay plates were also visually inspected. The MIC was defined as the lowest concentration inhibiting the visual growth of the microorganism. Standard errors were typically below 5%.

Data set [2] relates to Candida spp. The data set is described as follows: Fungal growth inhibition, Candida spp. (text summary of Table 1). In kind it is cell-based. Particulars: 38 μM highest concentration tested for compounds 4 and 8, read-out: MIC for several of the Candida spp. tested. As to the method:
as §1

For data set [3], the target named is Ca^2+-ATPase (SERCA1a) (Oryctolagus cuniculus, UniProt P04191). Briefly: ATP hydrolysis assay, SERCA. In kind it is biochemical, rabbit. Particulars: Table 1.
Sequence of Ca^2+-ATPase (SERCA1a) (P04191 1-994 isoform P04191-2): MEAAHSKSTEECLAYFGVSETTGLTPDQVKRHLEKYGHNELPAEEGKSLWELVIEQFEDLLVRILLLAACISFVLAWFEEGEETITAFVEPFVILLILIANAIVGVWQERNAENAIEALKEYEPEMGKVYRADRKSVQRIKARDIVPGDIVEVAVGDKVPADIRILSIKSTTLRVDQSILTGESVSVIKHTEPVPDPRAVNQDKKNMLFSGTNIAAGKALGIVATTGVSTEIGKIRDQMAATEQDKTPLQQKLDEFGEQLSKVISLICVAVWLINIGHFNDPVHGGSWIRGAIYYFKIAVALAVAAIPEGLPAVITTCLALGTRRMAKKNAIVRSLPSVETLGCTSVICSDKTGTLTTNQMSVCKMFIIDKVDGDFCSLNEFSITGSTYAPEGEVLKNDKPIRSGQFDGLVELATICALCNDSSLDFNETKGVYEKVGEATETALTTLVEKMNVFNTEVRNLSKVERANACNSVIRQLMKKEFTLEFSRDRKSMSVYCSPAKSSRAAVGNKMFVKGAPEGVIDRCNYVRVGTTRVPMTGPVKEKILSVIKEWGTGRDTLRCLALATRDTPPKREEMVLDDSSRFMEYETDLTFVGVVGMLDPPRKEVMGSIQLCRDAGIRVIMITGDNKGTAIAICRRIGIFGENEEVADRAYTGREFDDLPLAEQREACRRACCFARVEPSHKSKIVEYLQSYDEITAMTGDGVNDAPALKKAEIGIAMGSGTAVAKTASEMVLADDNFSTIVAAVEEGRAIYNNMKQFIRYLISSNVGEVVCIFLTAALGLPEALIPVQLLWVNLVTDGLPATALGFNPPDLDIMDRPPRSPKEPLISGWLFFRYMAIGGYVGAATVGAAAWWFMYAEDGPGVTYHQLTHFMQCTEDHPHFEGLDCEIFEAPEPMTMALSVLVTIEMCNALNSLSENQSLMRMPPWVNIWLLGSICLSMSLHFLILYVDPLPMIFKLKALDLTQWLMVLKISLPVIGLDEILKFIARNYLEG

As to `COc1ccc(Cn2c(SCc3cc(C)ccc3C)nc3cc(OC)c(OC)cc3c2=N)cc1` [Compound 12], the “Compound precipitation observed in the growth medium at concentrations down to” value in data set [1] is listed as “e Compound precipitation was observed in the growth medium at concentrations down to 150 μM”. Also, the MIC in data set [2] was over 150 µM. The IC50 in data set [3] (ATP hydrolysis at pH 7) was over 105 µM.
Regarding `Cc1c(-c2ccccc2)[o+]c2ccccc2c1C#Cc1ccccc1` [Compound 6], the “Compound precipitation observed in the growth medium at concentrations down to” value in data set [1] was “d Compound precipitation was observed in the growth medium at concentrations down to 48 μM”. Moreover, the MIC in data set [2] is over 150 µM. The same compound came in with an IC50 in data set [3] (ATP hydrolysis at pH 7.4 (compounds marked b)) of 3.4 ± 0.6 µM.

The term MIC denotes the smallest concentration in the dilution series that meets the test's criterion for growth inhibition. In general, IC50 refers to the concentration that gives 50% inhibition. Higher therefore signals a need for much substance.
